For assay [1], the target named is T1, FLT3 (Homo sapiens, UniProt P36888).
T1 sequence (P36888 27-993): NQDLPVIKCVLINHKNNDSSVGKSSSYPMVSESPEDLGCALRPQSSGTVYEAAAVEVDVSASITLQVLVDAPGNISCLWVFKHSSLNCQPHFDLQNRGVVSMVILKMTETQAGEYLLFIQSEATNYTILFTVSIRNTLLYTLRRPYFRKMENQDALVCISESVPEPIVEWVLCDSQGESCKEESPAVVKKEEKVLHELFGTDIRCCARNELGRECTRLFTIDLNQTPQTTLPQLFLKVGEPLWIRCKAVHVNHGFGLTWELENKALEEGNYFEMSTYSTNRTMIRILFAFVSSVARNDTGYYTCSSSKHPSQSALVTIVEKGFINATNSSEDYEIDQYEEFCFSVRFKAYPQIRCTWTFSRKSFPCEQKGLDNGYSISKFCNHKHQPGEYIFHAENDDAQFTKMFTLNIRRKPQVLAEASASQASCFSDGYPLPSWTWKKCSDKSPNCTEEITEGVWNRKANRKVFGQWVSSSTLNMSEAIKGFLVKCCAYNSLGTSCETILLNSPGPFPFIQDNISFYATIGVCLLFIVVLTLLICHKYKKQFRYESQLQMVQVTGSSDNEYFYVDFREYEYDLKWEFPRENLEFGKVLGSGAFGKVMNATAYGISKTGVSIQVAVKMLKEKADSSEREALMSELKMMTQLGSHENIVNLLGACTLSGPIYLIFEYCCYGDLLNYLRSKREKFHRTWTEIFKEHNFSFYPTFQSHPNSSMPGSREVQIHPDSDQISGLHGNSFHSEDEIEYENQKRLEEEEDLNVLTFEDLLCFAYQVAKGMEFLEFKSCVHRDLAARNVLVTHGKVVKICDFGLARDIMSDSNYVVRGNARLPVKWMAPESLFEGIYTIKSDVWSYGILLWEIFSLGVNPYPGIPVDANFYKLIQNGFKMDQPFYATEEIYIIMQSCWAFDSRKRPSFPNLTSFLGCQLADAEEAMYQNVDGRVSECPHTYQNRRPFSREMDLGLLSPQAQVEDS
The experiment in a line: Reaction Biology NanoBRET target engagement assay in HEK-293 cells, FLT3. Format: cell-based. As to conditions: live HEK-293 cells transfected with Kinase-NanoLuc fusion, 1 hour. An excerpt:
The NanoBRET assay measures kinase engagement in real time in the context of the intact cell. Unlike the previously described biochemical kinase assay methodology in Example 33, the NanoBRET assay measures the binding and activity characteristics under equilibrium conditions using full-length kinases in the presence of cellular concentrations of ATP in live, uncompromised cells. As such, the assay provides a more relevant assessment of kinase potency and selectivity that would be expected to be observed in the native cellular environment, where potency is often considerably lower than that observed in the isolated biochemical assays (Vasta, J. D. et al., (2018) Cell Chem. Biol. 25, 206-214). The assay uses a Kinase-NanoLuc® fusion vector expressing a kinase protein to which a luciferase tag has been added, a cell-permeant fluorescent NanoBRET™ tracer, a NanoLuc® substrate, and an extracellular NanoLuc® inhibitor. Upon expression of the luciferase-tagged kinase, cells will produce a strong BRET signal only in the presence of the NanoBRET™ tracer. The extracellular NanoLuc® inhibitor ensures that the BRET signal observed emanates only from live cells. Because the BRET signal has tight distance constraints, addition of the test compound will decrease the BRET signal if the compound competes with the NanoBRET™ tracer for binding to the kinase domain. Under the appropriate tracer conditions established by the manufacturer, quantitative intracellular affinity and relative potency can then be determined using Mass Action model equations.
HEK-293 cells were purchased from ATCC. FuGENEHD Transfection Reagent, Kinase-NanoLucfusion plasmids, Transfection Carrier DNA, NanoBRETTracers and dilution buffer, NanoBRETNano-Glo Substrate, Extracellular NanoLucInhibitor were obtained from Promega.
Assays were conducted following Promega assay protocol with some modifications. HEK-293 Cells were transiently transfected with Kinase-NanoLucFusion Vector DNA by FuGENEHD Transfection Reagent. Testing compounds were delivered into 384 well assay plate by Echo 550 (LabcyteInc, Sunnyvale, CA). Transfected cells were harvested and mixed with NanoBRETTracer Reagent and dispensed into 384 well plates and incubated at 37° C. in 5% C02 cell culture incubator for 1 hour. The NanoBRETNano-Glo Substrate plus Extracellular NanoLucInhibitor Solution were added into the wells of the assay plate and incubated for 2-3 minutes at room temperature. The donor emission wavelength (460 nm) and acceptor emission wavelength (600 nm) were measured in the EnVisionplate reader. The BRET Ratios were calculated. BRET Ratio=[(Acceptor sample÷Donor sample)−(Acceptor no-tracer control÷Donor no-tracer control)]. The IC50 values of compounds were calculated with Prism GraphPad program.
• 1). Cultivate HEK-293 cells (70-80% confluence) appropriately prior to assay. Trypsinize and collect HEK-293 cells. • 2). Prepare lipid: DNA complexes as follows: • a. Prepare a 10 μg/ml solution of DNA in Opti-MEM without serum that consists of the following ratios of carrier DNA and DNA encoding NanoLuc® fusion. 9.0 μg/mL of Transfection Carrier DNA, 1.0 μg/mL of NanoLuc fusion vector DNA and 1 mL of Opti-MEM without phenol red. Mix thoroughly. • b. Add 30 μl of FuGENE HD Transfection Reagent into each milliliter of DNA mixture to form lipid: DNA complex. • c. Mix by inversion 10 times. • d. Incubate at ambient temperature for 20 minutes to allow complexes to form. • 3). In a sterile, conical tube, mix 1 part of lipid:DNA complex with 20 parts of HEK-293 cells in suspension. Mix gently by inversion 5 times. • 4). Dispense cells+lipid:DNA complex into a sterile tissue culture dish and incubate for 22-24 hours.
Each test compound is delivered from the compound source plate to the wells of 384-well white NBS plate by Echo 550.
3. Preparation of Cells with NanoBRET™ Tracer Reagent • 1). […]
For orientation: Bioluminescence resonance energy transfer reports proximity on the nanometre scale.

The target of assay [2] is T1, FLT3. The experiment in a line: RBC HotSpot Kinase Assay, FLT3. Format: biochemical. The arrangement: purchased Reaction Biology (RBC HotSpot). The following applies: isolated kinase enzyme, 33P-ATP, P81 filter-binding. The essentials:
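Radiometric HotSpot assay of catalytic activity with isolated recombinant kinase, possibly truncated or kinase domain only. Buffer: 20 mM Hepes pH 7.5, 10 mM MgCl2, 1 mM EGTA, 0.01% Brij35, 0.02 mg/ml BSA, 0.1 mM Na3VO4, 2 mM DTT, 1% DMSO, with cofactors specific to each kinase.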

Some results are limits rather than exact numbers.

In general, IC50 refers to the point on the concentration scale where inhibition reaches its midpoint. Read a low IC50 as inhibition by little substance.

Take `COc1cc2ncc(-c3nc(N[C@H]4CNCC[C@@H]4F)ncc3F)n2nc1N1CCCS1(=O)=O` [Compound 112a, 2-(3-(5-fluoro-2-(((3S,4S)-4-fluoropiperidin-3-yl)amino)pyrimidin-4-yl)-7-methoxyimidazo[1,2-b]pyridazin-6-yl)isothiazolidine 1,1-dioxide]: the IC50 against FLT3 [1] and at FLT3 [2] was < 0.5 nM in each case.

The record behind these values is patent US20260226048A1, “MULTI-CYCLIC IRAK AND FLT3 INHIBITING COMPOUNDS AND USES THEREOF” (CHILDREN'S HOSPITAL MEDICAL CENTER, priority 2023, published 2026).
